Assay [1] relates to bilirubin oxidase (BOD), coated BOD 3 (Example 1, coated at 4° C.). The procedure:
(§1) First, 40 mg of BOD and 1 mg of ethylenediaminetetraacetic acid (EDTA) used as a stabilizer were dissolved in 3.8 mL of a 100 mM boric acid solution (pH 9.3). Subsequently, 6.0 mg of N-acryloxysuccinimide was dissolved in 0.2 mL of DMSO, and the solution was then gradually added to the boric acid buffer. The resulting solution was allowed to react at 4° C. for 10 hours. Subsequently, the resulting acryloylated BOD in which acryloyl groups were introduced was purified using a Sephadex G25 column at 4° C.
(§2) Subsequently, at 4° C., a mixture prepared by mixing acrylamide and N,N′-methylenebisacrylamide in a molar ratio of 10:1 was dissolved in 0.5 mL of deionized water free of oxygen. The solution was homogeneously added to the above acryloylated BOD solution, and the resulting solution was allowed to react for 60 minutes. The reaction was further performed in the presence of nitrogen at 4° C. for 60 minutes. Finally, the coated BOD (hereinafter referred to as “coated BOD 3”) was purified using a Sephadex G75 column.
(§3) The Michaelis constants (KM) and the reaction rate constants (kcat) of coated BOD 3, coated BOD 4, free BOD 2, and free BOD 3 prepared above were measured under the conditions shown in Table 4. […] The amount of protein of each BOD sample was determined by BCA colorimetric protein assay from a calibration curve of BSA used as a standard protein.

Assay [2] concerns bilirubin oxidase (BOD), coated BOD 4 (Example 1, coated at 4° C.). The procedure: as §1, §2, §3
Assay [3] deals with bilirubin oxidase (BOD), coated BOD 1 (Reference Example). The procedure:
(§4) The solution was homogeneously added to the above acryloylated BOD solution, and the resulting solution was allowed to react for 60 minutes.
(§5) The Michaelis constants (KM) and the reaction rate constants (kcat) of coated BOD 1, coated BOD 2, and free BOD 1 prepared above were measured under the conditions shown in Table 1 below. […] The amount of protein of each BOD sample was determined by bicinchoninic acid (BCA) colorimetric protein assay from a calibration curve of bovine serum albumin (BSA) used as a standard protein.

For assay [4], the system named is bilirubin oxidase (BOD), coated BOD 2 (Reference Example). The procedure:
as §4, §5

Assay [5] relates to bilirubin oxidase (BOD), free BOD 3 (not coated, stored at 4° C.). The note with it: oxygen saturation. The procedure: (§6) As controls, BOD on which coating was not performed and which was stored at 25° C. for the same period of time as that is necessary for the process of preparing coated BOD 4 (hereinafter referred to as “free BOD 2”), and BOD on which coating was not performed and which was stored at 4° C. for the same period of time as that is necessary for the process of preparing coated BOD 4 (hereinafter referred to as “free BOD 3”) were used.
as §3

The subject of assay [6] is bilirubin oxidase (BOD), free BOD 2 (not coated, stored at 25° C.). The note with it: ABTS, pH 7.0, 25° C., oxygen saturation. The procedure:
as §6, §3

Assay [7] has as its system bilirubin oxidase (BOD), free BOD 1 (not coated, stored at 4° C.). The note with it: oxygen saturation. The procedure: As a control, BOD on which coating was not performed and which was stored at 4° C. for the same period of time as that is necessary for the process of preparing coated BOD 2 (hereinafter referred to as “free BOD 1”) was used.
as §5

For `CCn1c(=NN=c2sc3cc(S(=O)(=O)O)ccc3n2CC)sc2cc(S(=O)(=O)O)ccc21.N.N` [ABTS, 2,2′-Azino-bis(3-ethylbenzothiazoline-6-sulfonic acid) diammonium salt], the kcat in assay [1] (coated BOD 3, ABTS, pH 7.0, 25° C., oxygen saturation) was 52.5 s⁻¹; in assay [2] (coated BOD 4, ABTS, pH 7.0, 25° C., oxygen saturation), 52.7 s⁻¹; in assay [3] (coated BOD 1, ABTS, pH 7.0, 25° C., oxygen saturation), 10.2 s⁻¹; in assay [4] (coated BOD 2, ABTS, pH 7.0, 25° C., oxygen saturation), 1.92 s⁻¹; in assay [5] (free BOD 3, ABTS, pH 7.0, 25° C.) it was 216 s⁻¹; in assay [6], 158 s⁻¹. In addition, the turnover number (kcat) in assay [7] (free BOD 1, ABTS, pH 7.0, 25° C.) is 234 s⁻¹. Further, the “Michaelis constant (KM) compared with free BOD 2 and free BOD 3” value is on record as “about twice” in assay [1] (coated BOD 3 vs free BOD 2 and free BOD 3); “about twice” in assay [2] (coated BOD 4 vs free BOD 2 and free BOD 3). For the same compound, the Km worked out at 570 µM in assay [1] (read-out: KM,ABTS, coated BOD 3, 1.09 nM, ABTS 0.05 to 7 mM, pH 7.0 sodium phosphate, 25° C., oxygen saturation, 730 nm); 670 µM in assay [2] (read-out: KM,ABTS, coated BOD 4, 3.30 nM, ABTS 0.05 to 7 mM, pH 7.0 sodium phosphate, 25° C., oxygen saturation, 730 nm); 383 µM in assay [3] (read-out: KM,ABTS, coated BOD 1, 2.05 nM, ABTS 0.05 to 10 mM, pH 7.0 sodium phosphate, 25° C., oxygen saturation, 730 nm); 405 µM in assay [4] (read-out: KM,ABTS, coated BOD 2, 19.7 nM, ABTS 0.05 to 10 mM, pH 7.0 sodium phosphate, 25° C., oxygen saturation, 730 nm); 358 µM in assay [5] (read-out: KM,ABTS, free BOD 3, 0.629 nM, ABTS 0.05 to 7 mM, pH 7.0 sodium phosphate, 25° C., 730 nm); 307 µM in assay [7] (read-out: KM,ABTS, free BOD 1, 712 pM, ABTS 0.05 to 10 mM, pH 7.0 sodium phosphate, 25° C., 730 nm). In addition, the “Michaelis constant (KM) compared with free BOD 1” value in assay [3] (coated BOD 1 vs free BOD 1) and in assay [4] (coated BOD 2 vs free BOD 1) was “no significant difference” each time.

As a reminder, the kcat is the number of substrate molecules converted per active site and unit of time at saturation. A word on the Km: it is the substrate concentration at which the rate is half of its maximum.

(Values after US20090053582A1, “METHOD OF COATING BILIRUBIN OXIDASE” (SONY CORPORATION, priority 2007, published 2009).)
